Source: DBAASP
Values after ≈ are worked out from the molar mass of the structure shown. Values joined by “and” are separate entries in the source; they are usually repeats but may differ in a detail not shown here. Identical values can stand only once. One block for each compound: values may come before it.

What was measured:
Assay in all cases: ≥ marks a high value that may be exact or a test limit, other limits are often not marked, values filed in µg/mL are converted to µM
[1] = system: Yersinia pseudotuberculosis YPIII
[2] = system: Candida albicans ATCC 10231
Bacillus megaterium Bm11 = system: Bacillus megaterium Bm11
[3] = system: Escherichia coli ATCC 25922
[4] = system: Staphylococcus aureus Cowan 1
Staphylococcus capitis 1 = system: Staphylococcus capitis 1
[5] = system: Escherichia coli ATCC 10536
[6] = system: Saccharomyces cerevisiae IFO 1850
[7] = system: Bacillus subtilis ATCC 6633
[8] = system: Candida albicans CCARM 14001
[9] = system: Staphylococcus aureus CCARM 3126
[10] = system: Candida albicans CCARM 14007
[11] = system: Staphylococcus aureus CCARM 3090
[12] = system: Pseudomonas aeruginosa KCTC 1637
[13] = system: Salmonella typhimurium KCTC 1926
[14] = system: Salmonella typhimurium CCARM 8007
[15] = system: Staphylococcus aureus CCARM 3089
[16] = system: Candida albicans ATCC 64550
[17] = system: Salmonella typhimurium CCARM 8013
[18] = system: Escherichia coli CCARM 1229
[19] = system: Staphylococcus aureus CCARM 3114
[20] = system: Escherichia coli KCTC 1682
[21] = system: Listeria monocytogenes KCTC 3710
[22] = system: Staphylococcus aureus KCTC 1621
[23] = system: Escherichia coli CCARM 1238
[24] = system: Salmonella typhimurium CCARM 8009
[25] = system: Staphylococcus aureus CCARM 3108
[26] = system: Bacillus subtilis KCTC 1918

MIC [1]: ≥ 40 µM
MIC [2]: > 40 µM
MIC (Bacillus megaterium Bm11): 20 µM (≈ 26.4 µg/mL)
MIC [3]: > 40 µM
MIC [4]: ≥ 40 µM
MIC (Staphylococcus capitis 1): ≥ 40 µM
Structure (SMILES): CC[C@H](C)[C@H](NC(=O)CNC(=O)[C@H](CO)NC(=O)[C@H](CC(C)C)NC(=O)[C@@H](NC(=O)[C@H](CCCN=C(N)N)NC(=O)CNC(=O)[C@@H](NC(=O)[C@H](CC(C)C)NC(=O)[C@@H]1CCCN1C(=O)[C@H](CC(C)C)NC(=O)[C@H](C)N)[C@@H](C)CC)C(C)C)C(=O)N[C@@H](CC(C)C)C(N)=O [ALPLIGRVLSGIL]

MIC [5]: 9.14 µM (≈ 28 µg/mL)
MIC [6]: 3.92 µM (≈ 12 µg/mL)
MIC [7]: 3.92 µM (≈ 12 µg/mL)
Structure (SMILES): CC(C)C[C@H](NC(=O)[C@H](CCCN=C(N)N)NC(=O)CNC(=O)CNC(=O)[C@@H](NC(=O)[C@H](CCCCN)NC(=O)[C@@H]1CCCN1C(=O)[C@H](Cc1ccccc1)NC(=O)[C@H](Cc1ccc(O)cc1)NC(=O)[C@H](CCC(N)=O)NC(=O)[C@H](CCCCN)NC(=O)CN)C(C)C)C(=O)N[C@@H](CO)C(=O)NCC(=O)N[C@@H](CCCCN)C(=O)N[C@@H](C)C(=O)N1CCC[C@H]1C(=O)N[C@@H](CC(C)C)C(=O)N[C@@H](C)C(=O)N[C@@H](C)C(=O)N[C@@H](CCCCN)C(=O)N[C@H](C(=O)N[C@@H](Cc1cnc[nH]1)C(=O)N[C@@H](CCCN=C(N)N)C(=O)N[C@@H](CCCN=C(N)N)C(=O)N[C@@H](CC(C)C)C(=O)N[C@@H](CCCCN)C(=O)N1CCC[C@H]1C(N)=O)[C@@H](C)O [GKQYFPKVGGRLSGKAPLAAKTHRRLKP]

MIC [8]: ≥ 32 µM
MIC [9]: 12.5 µM (≈ 15.9 µg/mL)
MIC [10]: ≥ 32 µM
MIC [11]: 12.5 µM (≈ 15.9 µg/mL)
MIC [12]: 3.12 µM (≈ 3.98 µg/mL)
MIC [13]: 1.56 µM (≈ 1.99 µg/mL)
MIC [14]: 12.5 µM (≈ 15.9 µg/mL)
MIC [15]: 12.5 µM (≈ 15.9 µg/mL)
MIC [16]: ≥ 50 µM
MIC [17]: 6.25 µM and 12.5 µM
MIC [18]: 6.25 µM and 12.5 µM
MIC [19]: 12.5 µM (≈ 15.9 µg/mL)
MIC [20]: 6.25 µM and 12.5 µM
MIC [21]: 3.12 µM (≈ 3.98 µg/mL)
MIC [22]: 6.25 µM and 12.5 µM
MIC [23]: 12.5 µM (≈ 15.9 µg/mL)
MIC [24]: 6.25 µM and 12.5 µM
MIC [25]: 12.5 µM (≈ 15.9 µg/mL)
MIC [26]: 6.25 µM and 12.5 µM
Structure (SMILES): NCCCC[C@H](NC(=O)[C@H](Cc1c[nH]c2ccccc12)NC(=O)[C@H](CCCCN)NC(=O)[C@H](Cc1c[nH]c2ccccc12)NC(=O)[C@H](CCCCN)NC(=O)[C@H](Cc1c[nH]c2ccccc12)NC(=O)[C@@H](N)CCCCN)C(=O)N[C@@H](Cc1c[nH]c2ccccc12)C(N)=O [KWKWKWKW]
